From publication PMC8445441, “Elucidating the mechanism by which synthetic helper peptides sensitize Pseudomonas aeruginosa to multiple antibiotics” (PLoS Pathogens, 2021)
Values joined by “and” are separate entries in the source; they are usually repeats but may differ in a detail not shown here. Identical values can stand only once. Like-named read-outs stand apart in the source and are kept apart here. Each block holds one molecule with its values, some of them ahead of it.

Key:
[1] = system: P. aeruginosa AUMC-Pa-3; assay: microbe, parasite or virus in culture; details: strain AUMC-Pa-3; for MICac: MIC of the antibiotic in the combination: with D-11 at MICbc 4
Outline: (§1)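 Growth inhibition was scored by eye after an 18 h, 37 °C incubation of drug-bacteria mixtures in Mueller-Hinton broth. Inoculum suspension held approximately 1 × 10^6 CFU/mL before 1:1 mixing.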

[2] = system: P. aeruginosa AUMC-Pa-4; assay: microbe, parasite or virus in culture; details: strain AUMC-Pa-4; for MICa: MIC of the antibiotic: antibiotic alone; for MICa: MIC of the antibiotic / MICac: MIC of the antibiotic in the combination: unit not given; for MICac: MIC of the antibiotic in the combination: with D-11 at MICbc 4
Outline: as §1

[3] = system: P. aeruginosa AUMC-Pa-5; assay: microbe, parasite or virus in culture; details: strain AUMC-Pa-5; for MICa: MIC of the antibiotic: antibiotic alone; for MICa: MIC of the antibiotic / MICac: MIC of the antibiotic in the combination: unit not given; for MICac: MIC of the antibiotic in the combination: with D-11 at MICbc 4
Outline: as §1

[4] = system: P. aeruginosa AUMC-Pa-6; assay: microbe, parasite or virus in culture; details: strain AUMC-Pa-6; for MICa: MIC of the antibiotic: antibiotic alone; for MICa: MIC of the antibiotic / MICac: MIC of the antibiotic in the combination: unit not given; for MICac: MIC of the antibiotic in the combination: with D-11 at MICbc 4
Outline: as §1

[5] = system: P. aeruginosa PAO1; assay: microbe, parasite or virus in culture; details: PAO1
Outline: as §1

[6] = system: P. aeruginosa ATCC27853; assay: microbe, parasite or virus in culture; set-up: MICa: MIC of the antibiotic / MICac: MIC of the antibiotic in the combination: unit not given beside the values; details: strain ATCC27853; for FICI: antibiotic + D-11 (MICb/MICbc 32/4); for MICa: MIC of the antibiotic: antibiotic alone; for MICa: MIC of the antibiotic / MICac: MIC of the antibiotic in the combination: unit not given; for MICac: MIC of the antibiotic in the combination: with D-11 at MICbc 4
Outline: as §1

[7] = system: P. aeruginosa NR-31040; assay: microbe, parasite or virus in culture; set-up: MICa: MIC of the antibiotic / MICac: MIC of the antibiotic in the combination: unit not given beside the values; details: for MICac: MIC of the antibiotic in the combination: with D-11 at MICbc 4
Outline: as §1

[8] = system: P. aeruginosa NR-31041; assay: microbe, parasite or virus in culture; set-up: MICa: MIC of the antibiotic / MICac: MIC of the antibiotic in the combination: unit not given beside the values
Outline: as §1

[9] = system: P. aeruginosa PA14; assay: microbe, parasite or virus in culture; set-up: MICa: MIC of the antibiotic / MICac: MIC of the antibiotic in the combination: unit not given beside the values; details: strain PA14; for MICa: MIC of the antibiotic: antibiotic alone; for MICa: MIC of the antibiotic / MICac: MIC of the antibiotic in the combination: unit not given; for MICac: MIC of the antibiotic in the combination: with D-11 at MICbc 4
Outline: as §1

[10] = system: P. aeruginosa PAK; assay: microbe, parasite or virus in culture; set-up: MICa: MIC of the antibiotic / MICac: MIC of the antibiotic in the combination: unit not given beside the values; details: strain PAK; for MICa: MIC of the antibiotic: antibiotic alone; for MICa: MIC of the antibiotic / MICac: MIC of the antibiotic in the combination: unit not given; for MICac: MIC of the antibiotic in the combination: with D-11 at MICbc 4
Outline: as §1

[11] = system: P. aeruginosa HM-214; set-up: MICa: MIC of the antibiotic / MICac: MIC of the antibiotic in the combination: unit not given beside the values; details: strain HM-214
Outline: as §1

[12] = system: P. aeruginosa AUMC-Pa-1; details: strain AUMC-Pa-1
Outline: as §1

[13] = system: P. aeruginosa AUMC-Pa-2; details: strain AUMC-Pa-2
Outline: as §1

[14] = system: clinical P. aeruginosa isolates; assay: microbe, parasite or virus in culture; details: antibiotic alone; for MIC: Pseudomonas aeruginosa, 18 h
Outline: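 Broth microdilution per CLSI in MHB, two-fold drug dilutions mixed with an equal volume of bacteria at about 1 × 10^6 CFU/mL. After 18 h at 37 °C, MIC taken as the lowest concentration with no visible growth; run in triplicate.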

[15] = antibiotic + D-11 (MICb/MICbc 128/4)
[16] = antibiotic alone, unit not given
[17] = antibiotic + D-11 (MICb/MICbc 64/4)
[18] = strain NR-31040, unit not given
[19] = with D-11 at MICbc 4, unit not given

- MICa: MIC of the antibiotic [1, 16]: 4
- MICac: MIC of the antibiotic in the combination ([1]; unit not given): 1
- MICa: MIC of the antibiotic [2]: 8
- MICac: MIC of the antibiotic in the combination [2]: 2
- MICa: MIC of the antibiotic [3]: 8/8
- MICac: MIC of the antibiotic in the combination [3]: 8/8
- MICa: MIC of the antibiotic [4]: 8
- MICac: MIC of the antibiotic in the combination [4]: 2
- MICac: the MIC for the antibiotic in the combination ([5]; S3 Table, with 2 μM D-11): 1 µM
- MICac: the MIC for the antibiotic in the combination ([5]; S3 Table, with 4 μM D-11): 1 µM
- MICa: the MIC of antibiotics ([5]; S3 Table, antibiotic alone): 4 µM
- MICa: MIC of the antibiotic [6]: 4
- MICac: MIC of the antibiotic in the combination [6]: 1
- MIC ([7]; Pseudomonas aeruginosa, NR31040, 18 h, read-out: MICa: MIC of the antibiotic): 8 µM
- MICac: MIC of the antibiotic in the combination [7, 18]: 0.5
- MIC ([8]; Pseudomonas aeruginosa, NR31041, 18 h, read-out: MICa: MIC of the antibiotic): 8.1 µM
- MICa: MIC of the antibiotic [9]: 4
- MICac: MIC of the antibiotic in the combination [9]: 1
- MICa: MIC of the antibiotic [10]: 4
- MICac: MIC of the antibiotic in the combination [10]: 1
- MIC ([14]; read-out: Antibiotic sensibility (MIC) of clinical P. aeruginosa isolate AUMC-Pa-1, strain AUMC-Pa-1): 8 µM
- MIC ([14]; read-out: Antibiotic sensibility (MIC) of clinical P. aeruginosa isolate AUMC-Pa-2, strain AUMC-Pa-2): 2 µM
- MIC ([14]; read-out: Antibiotic sensibility (MIC) of clinical P. aeruginosa isolate AUMC-Pa-3, strain AUMC-Pa-3): 4 µM
- MIC ([14]; read-out: Antibiotic sensibility (MIC) of clinical P. aeruginosa isolate AUMC-Pa-4, strain AUMC-Pa-4): 8 µM
- MIC ([14]; read-out: Antibiotic sensibility (MIC) of clinical P. aeruginosa isolate AUMC-Pa-5, strain AUMC-Pa-5): 8 µM
- MIC ([14]; read-out: Antibiotic sensibility (MIC) of clinical P. aeruginosa isolate AUMC-Pa-6, strain AUMC-Pa-6): 8 µM
- MIC ([14]; read-out: Antibiotic sensibility (MIC) of clinical P. aeruginosa isolate HM-214, strain HM-214): 4 µM
- MIC ([14]; read-out: Antibiotic sensibility (MIC) of clinical P. aeruginosa isolate NR-31040, strain NR-31040): 8 µM
- MIC ([14]; read-out: Antibiotic sensibility (MIC) of clinical P. aeruginosa isolate NR-31041, strain NR-31041): 8 µM
Molecule: CN(C)c1cc(NC(=O)CNC(C)(C)C)c(O)c2c1C[C@H]1C[C@H]3[C@H](N(C)C)C(O)=C(C(N)=O)C(=O)[C@@]3(O)C(O)=C1C2=O [Tigecycline]
- FICI [1, 15]: 0.281
- FICI [2, 15]: 0.281
- FICI [3, 17]: 1.063
- FICI [4, 17]: 0.313
- FICI ([5]; S3 Table, antibiotic + 2 μM D-11): 0.313
- FICI ([5]; S3 Table, antibiotic + 4 μM D-11): 0.375
- FICI [6]: 0.375
- FICI ([7]; strain NR-31040, antibiotic + D-11 (MICb/MICbc 128/4)): 0.094
- FICI ([8]; strain NR-31041, antibiotic + D-11 (MICb/MICbc 64/4)): 0.188
- FICI [9, 15]: 0.281
- FICI [10, 17]: 0.313
- FICI [11, 15]: 0.281
- FICI [12, 15]: 0.281
- FICI [13, 17]: 0.563

- MICac: MIC of the antibiotic in the combination ([1]; unit not given): 64
- MICa: MIC of the antibiotic [2]: >128/>128
- MICac: MIC of the antibiotic in the combination [2]: >128/>128
- MICa: MIC of the antibiotic [3]: >128/128
- MICac: MIC of the antibiotic in the combination [3]: >128/128
- MICa: MIC of the antibiotic [4]: >128/128
- MICac: MIC of the antibiotic in the combination [4]: >128/128
- MIC of spiramycin alone [5]: higher than 128 μM
- MICa: the MIC of antibiotics ([5]; S1 Table, macrolide alone): >128/>128 μM and >128/128 μM
- MICa: MIC of the antibiotic [6]: >128/128
- MICac: MIC of the antibiotic in the combination [6]: >128/128
- MICa: MIC of the antibiotic ([7]; strain NR-31040, antibiotic alone, unit not given): >128/128
- MICac: MIC of the antibiotic in the combination [7, 18]: >128/128
- MICa: MIC of the antibiotic ([8]; strain NR-31041, antibiotic alone, unit not given): >128/128
- MICac: MIC of the antibiotic in the combination ([8]; strain NR-31041, with D-11 at MICbc 4, unit not given): >128/128
- MICa: MIC of the antibiotic [9]: >128/128
- MICac: MIC of the antibiotic in the combination [9]: >128/128
- MICa: MIC of the antibiotic [10]: >128/128
- MICac: MIC of the antibiotic in the combination [10]: >128/128
- MICa: MIC of the antibiotic [11, 16]: >128/128
- MICac: MIC of the antibiotic in the combination [11, 19]: >128/128
- MICac: MIC of the antibiotic in the combination [12, 19]: 64
- MICa: MIC of the antibiotic [13, 16]: >128/128
- MICac: MIC of the antibiotic in the combination [13, 19]: >128/128
- Antibiotic sensibility (MIC) of clinical P. aeruginosa isolate AUMC-Pa-1 ([14]; strain AUMC-Pa-1): >128 µM
- Antibiotic sensibility (MIC) of clinical P. aeruginosa isolate AUMC-Pa-2 ([14]; strain AUMC-Pa-2): >128 µM
- Antibiotic sensibility (MIC) of clinical P. aeruginosa isolate AUMC-Pa-3 ([14]; strain AUMC-Pa-3): >128 µM
- Antibiotic sensibility (MIC) of clinical P. aeruginosa isolate AUMC-Pa-4 ([14]; strain AUMC-Pa-4): >128 µM
- Antibiotic sensibility (MIC) of clinical P. aeruginosa isolate AUMC-Pa-5 ([14]; strain AUMC-Pa-5): >128 µM
- Antibiotic sensibility (MIC) of clinical P. aeruginosa isolate AUMC-Pa-6 ([14]; strain AUMC-Pa-6): >128 µM
- Antibiotic sensibility (MIC) of clinical P. aeruginosa isolate HM-214 ([14]; strain HM-214): >128 µM
- Antibiotic sensibility (MIC) of clinical P. aeruginosa isolate NR-31040 ([14]; strain NR-31040): >128 µM
- Antibiotic sensibility (MIC) of clinical P. aeruginosa isolate NR-31041 ([14]; strain NR-31041): >128 µM
Molecule: Spiramycin
- FICI ([5]; spiramycin + D-11, 256 used for the calculation): 0.625
- FICI [6]: 0.625
